Patent US20260184667A1, “CGMP-COMPLIANT AUTOMATED [18F]FSPG PRODUCTION FOR CLINICAL EXAMINATION” (BOARD OF REGENTS, THE UNIVERSITY OF TEXAS SYSTEM, priority 2022, published 2026)

How the values were obtained:
[1] = Radiochemical purity on storage at room temperature (analytical reverse phase-HPLC); assay type: physicochemical; details: stored at room temperature, for 5 hours after end of synthesis (FIG. 3)
Description: The radiochemical purity of the [^18F]FSPG composition was tested at the end of synthesis and up to 5 hours after being stored at room temperature. Analytical reverse phase-HPLC was performed on an Agilent 1260 HPLC system equipped with a 1200 Series Diode Array Detector and a Raytest GABI Star NaI (TL) scintillation detector. The following process parameters were used: • Column: Phenomenex Luna C-18 (2) 250 mm×4.6 mm (5 μm) • Mobile Phase A: 40 μM aqueous disodium phosphate • Mobile Phase B: Acetonitrile/Methanol/Water (45:45:10) (% w/v) • Flow rate: 1.5 ml/min • Gradient: • Initial: 100% Mobile Phase A, 0% Mobile Phase B • 2 min: 96% Mobile Phase A, 4% Mobile Phase B • 5 min: 88% Mobile Phase A, 12% Mobile Phase B • 15 min: 88% Mobile Phase A, 12% Mobile Phase B • 20 min: 40% Mobile Phase A, 60% Mobile Phase B • 22 min: 0% Mobile Phase A, 100% Mobile Phase B • 24 min: 0% Mobile Phase A, 100% Mobile Phase B • 25 min: 100% Mobile Phase A, 0% Mobile Phase B • 30 min: 100% Mobile Phase A, 0% Mobile Phase B • Total Run Time: 35 minutes • UV detector: 340 nm • [^18F]FSPG solution (80 μl) was mixed with o-phthaldialdehyde reagent solution (20 μl). The mixture sat for 1 min prior to the HPLC analysis.

[2] = molecular target: T1, cystine/glutamate antiporter (Xc^−) (Homo sapiens, UniProt Q9UPY5); details: PET; healthy volunteers and patients with non-small cell lung cancer, hepatocellular carcinoma, brain tumors; cited from earlier work
T1 construct: from tissue; host or cells: Human tissues and tumours in vivo (healthy volunteers; patients with NSCLC, hepatocellular carcinoma or brain tumours)
T1 sequence (Q9UPY5 1-501): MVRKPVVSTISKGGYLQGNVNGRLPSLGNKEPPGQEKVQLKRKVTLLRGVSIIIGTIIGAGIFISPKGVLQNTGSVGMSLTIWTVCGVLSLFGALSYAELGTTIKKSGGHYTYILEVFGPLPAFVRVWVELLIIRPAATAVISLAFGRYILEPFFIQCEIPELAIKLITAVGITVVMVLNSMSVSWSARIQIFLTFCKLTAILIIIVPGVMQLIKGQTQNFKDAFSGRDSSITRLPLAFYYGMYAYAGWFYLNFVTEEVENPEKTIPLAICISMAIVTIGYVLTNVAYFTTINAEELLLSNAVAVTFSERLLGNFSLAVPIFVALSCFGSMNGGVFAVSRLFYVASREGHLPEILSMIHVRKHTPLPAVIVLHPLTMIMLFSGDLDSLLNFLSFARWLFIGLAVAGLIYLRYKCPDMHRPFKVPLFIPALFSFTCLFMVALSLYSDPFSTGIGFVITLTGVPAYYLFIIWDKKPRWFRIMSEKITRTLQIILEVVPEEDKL
T1 sequence (P08195 1-529 partner): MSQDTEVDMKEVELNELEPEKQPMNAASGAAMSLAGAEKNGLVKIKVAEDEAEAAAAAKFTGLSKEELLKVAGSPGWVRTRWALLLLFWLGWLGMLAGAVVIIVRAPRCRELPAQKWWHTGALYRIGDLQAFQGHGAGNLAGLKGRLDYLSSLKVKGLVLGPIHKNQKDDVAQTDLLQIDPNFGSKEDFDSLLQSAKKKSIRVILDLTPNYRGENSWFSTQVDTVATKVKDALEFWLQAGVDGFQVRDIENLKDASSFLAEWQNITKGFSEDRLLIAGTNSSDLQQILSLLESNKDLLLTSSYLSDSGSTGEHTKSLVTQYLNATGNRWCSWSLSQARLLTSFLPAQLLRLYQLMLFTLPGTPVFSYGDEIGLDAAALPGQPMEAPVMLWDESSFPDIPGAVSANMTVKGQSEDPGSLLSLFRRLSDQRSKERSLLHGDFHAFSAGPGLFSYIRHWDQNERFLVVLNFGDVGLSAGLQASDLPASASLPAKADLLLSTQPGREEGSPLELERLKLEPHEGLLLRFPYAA

**Q.** With `N[C@@H](C[C@H](CCC[18F])C(=O)O)C(=O)O` [[^18F]FSPG, (S)-4-(3-^18F-fluoropropyl)-L-glutamic acid] as the molecule, how does the radiochemical purity maintained [1] read?
**A.** Its radiochemical purity maintained is > 95%.

**Q.** And the background uptake [2]?
**A.** The background uptake was “low background uptake in the brain, lung, and bowel”.
